Test [1] concerns human lung epithelial cell line A549. In words: IL-33 mRNA induction in A549 cells (real-time PCR). It is filed as cell-based. Particulars: cytokine treatment for 72 hours, normalized to GAPDH. The method, then:
(§1) FIGS. 18A-18J show the role of IL-33 in the persistence of asthma. FIG. 18A, A549 cells were cultured in medium alone or with IL-33 ([…]), IL-1b (2 ng/mL), IL-4 (10 ng/mL), IL-13 (20 ng/mL), IL-17 (10 ng/mL), TNF (2 ng/mL), IFN-γ (10 ng/mL), or IFN-γ plus TNF (same concentrations) for 72 hours, and then mRNA was analyzed for IL-33 normalized to glyceraldehyde-3-phosphate dehydrogenase (GAPDH). *P<0.05 and **P<0.01. There were 4 to 8 mice per group. FIGS. 18B-18E show the direct effect of IL-33 on airway hyperreactivity, lung ILCs, and autoinduction. […] IN, Intranasal. […] The change in RL with the 25-mg dose of methacholine is shown (n=5 per group). *P<0.05.
Immediately after flexiVent analysis, lung sections were collected in RIPA buffer (50 mmol/L Tris [pH 7.4], 150 mmol/L NaCl, 1 mmol/L EDTA, 1 mmol/L NaF, 1 mmol/L Na3VO4, and 0.1 mmol/L phenylmethylsulfonyl fluoride) containing protease and phosphatase inhibitors and homogenized. Lysed samples were subjected to 10% SDS-PAGE, transferred to a polyvinylidene difluoride membrane, and then immunoblotted with primary antibodies (IL-33 [R&D Systems], tubulin [H-235], and b-actin [Santa Cruz Biotechnology, Dallas, Tex]). After washing, the membranes were incubated with a horseradish peroxidase-conjugated secondary antibody. After additional washing, the membranes were developed with ECL reagent, as previously described (Gorska et al. 2007). A549 cell culture A549 cells were cultured in RPMI in 10% FBS (HyClone; Thermo Scientific, Waltham, Mass.) and 1% penicillin/streptomycin (Gibco, Carlsbad, Calif.) and maintained at 378C in a humidified 5% CO2 incubator. All cytokines were purchased from PeproTech (Rocky Hill, N.J.). In one experiment cells were treated with medium, IL-1b (2 ng/mL), IL-4 (10 ng/mL), IL-13 (20 ng/mL), IL-17 (10 ng/mL), IL-33 (20 ng/mL), TNF (2 ng/mL), IFN-g (10 ng/mL), and TNF (2 ng/mL) plus IFN-g (10 ng/mL) for 72 hours. Cellular RNA was analyzed for mRNA for IL-33 and IL-33R. In a second experiment cells were pretreated for 24 hours with medium, IL-1b (2 ng/mL), IL-4 (10 ng/mL), IL-13 (20 ng/mL), IL-17 (10 ng/mL), TNF (2 ng/mL), or IFN-g (10 ng/mL) before stimulation for 72 hours with IL-33 (20 ng/mL). Cellular RNAwas analyzed for mRNA for IL-33. In a third experiment cells were treated for 24 hours with DRA (5 μg/mL dust mite, 15 μg/mL ragweed, and 5 μg/mL Aspergillus species). Cellular RNA was analyzed for mRNA for IL-33. In a fourth experiment cells were treated for 24 hours with IL-13 (20 ng/mL) and ATP, and the supernatant was collected and analyzed for IL-33 levels by means of ELISA, according to the manufacturer's instructions (R&D systems). […]
For orientation: Real-time PCR tracks product formation cycle by cycle.

In test [2] the test system is A549 cells. Nature of the test: IL-33 secretion by A549 cells (ELISA). The format is cell-based, human. Particulars: IL-13 20 ng/mL and ATP, overnight. The method, then: FIG. 27A, Effect of IL-13 on IL-33 secretion. A549 cells were treated overnight with medium or IL-13 (20 ng/mL) and ATP ([…]), and the released IL-33 was measured by using ELISA (n=6). *P=0.04. FIGS. 27B-27E, Direct effect of IL-33 on airway hyperreactivity and lung ILCs. C57Bl/6 mice were treated intranasally for 3 consecutive days with 400 ng per dose of IL-33. Outcome measures were evaluated 15 days after final exposure.
(§2) Immediately after flexiVent analysis, lung sections were collected in RIPA buffer (50 mmol/L Tris [pH 7.4], 150 mmol/L NaCl, 1 mmol/L EDTA, 1 mmol/L NaF, 1 mmol/L Na3VO4, and 0.1 mmol/L phenylmethylsulfonyl fluoride) containing protease and phosphatase inhibitors and homogenized. Lysed samples were subjected to 10% SDS-PAGE, transferred to a polyvinylidene difluoride membrane, and then immunoblotted with primary antibodies (IL-33 [R&D Systems], tubulin [H-235], and b-actin [Santa Cruz Biotechnology, Dallas, Tex]). […] Cellular RNA was analyzed for mRNA for IL-33 and IL-33R. […] Cellular RNAwas analyzed for mRNA for IL-33. […] Cellular RNA was analyzed for mRNA for IL-33. In a fourth experiment cells were treated for 24 hours with IL-13 (20 ng/mL) and ATP, and the supernatant was collected and analyzed for IL-33 levels by means of ELISA, according to the manufacturer's instructions (R&D systems).
A general note: An ELISA detects its analyte on a solid surface through an enzyme-linked reagent.

The test system of test [3] is A549 cells. Nature of the test: Cytokine induction of IL-33R mRNA in A549 cells. The format is cell-based, human. The note with it: cytokine treatment for 72 hours. The method, then:
as §1
as §2, with “homogenized.” for “homogenized. Lysed samples were subjected to 10% SDS-PAGE, transferred to a polyvinylidene difluoride membrane, and then immunoblotted with primary antibodies (IL-33 [R&D Systems], tubulin [H-235], and b-actin [Santa Cruz Biotechnology, Dallas, Tex]).”, “systems). […]” for “systems).”

The subject of test [4] is A549 cells. In words: IL-33 autoinduction in A549 cells after cytokine pretreatment. The format is cell-based, human. Particulars: pretreated 24 hours with cytokine, then 72 hours with IL-33 (20 ng/mL). The method, then:
as §1
as §2, with “homogenized.” for “homogenized. Lysed samples were subjected to 10% SDS-PAGE, transferred to a polyvinylidene difluoride membrane, and then immunoblotted with primary antibodies (IL-33 [R&D Systems], tubulin [H-235], and b-actin [Santa Cruz Biotechnology, Dallas, Tex]).”, “systems). […]” for “systems).”

As to “IL-13: cytokine purchased from PeproTech, 20 ng/mL on A549 cells”, the “induction of IL-33 mRNA” value in test [1] was “most potent inducer of IL-33 mRNA”. The “secretion of IL-33” value in test [2] is reported as “stimulated secretion of IL-33”. The “induction of IL-33R mRNA” value in test [3] was “strongly induced IL-33R”. Further, in test [4], the “IL-33 autoinduction after preincubation with cytokine” value was “synergistically enhanced IL-33 autoinduction”.

These data come from US20190041401A1, “Methods of Treating Subjects having Severe and/or Persistent Asthma” (National Jewish Health, priority 2015, published 2019).
